Data published in EP4467141A1, “PYRAZOLO-QUINOLINES AS SELECTIVE INHIBITORS OF GENOTOXIC STRESS-INDUCED IKK/NF- KB PATHWAYS FOR CANCER THERAPY” (Max-Delbrück-Centrum für Molekulare Medizin in der …, priority 2023, dated 2024).

What was measured:
Assay in all cases: Kinase panel study
Type in all cases: biochemical
Conditions in all cases: read-out: Percentage of inhibition; for inhibition at 1 µM: 1000nM; for inhibition at 10 µM: 10000nM
EEF2K = molecular target: T1, EEF2K (Homo sapiens, UniProt O00418)
T1 construct: purchased Thermo Fisher Scientific
Summary of the method: (§1)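 Compounds were tested in vitro against the kinase panel by a service lab. Assays followed standard ZLyte or Adapta protocols. Activity was recorded as % inhibition at 10 µM or 1 µM, with IC50 values where determined.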

MAPK7 (ERK5) = molecular target: T2, MAPK7 (ERK5) (Homo sapiens, UniProt Q13164)
T2 construct: purchased Thermo Fisher Scientific
Summary of the method: as §1

MAPK3 (ERK1) = molecular target: T3, MAPK3 (ERK1) (Homo sapiens, UniProt P27361)
T3 construct: purchased Thermo Fisher Scientific
Summary of the method: as §1

EPHB2 = molecular target: T4, EPHB2 (Homo sapiens, UniProt P29323)
T4 construct: purchased Thermo Fisher Scientific
T4 sequence (P29323 19-1055): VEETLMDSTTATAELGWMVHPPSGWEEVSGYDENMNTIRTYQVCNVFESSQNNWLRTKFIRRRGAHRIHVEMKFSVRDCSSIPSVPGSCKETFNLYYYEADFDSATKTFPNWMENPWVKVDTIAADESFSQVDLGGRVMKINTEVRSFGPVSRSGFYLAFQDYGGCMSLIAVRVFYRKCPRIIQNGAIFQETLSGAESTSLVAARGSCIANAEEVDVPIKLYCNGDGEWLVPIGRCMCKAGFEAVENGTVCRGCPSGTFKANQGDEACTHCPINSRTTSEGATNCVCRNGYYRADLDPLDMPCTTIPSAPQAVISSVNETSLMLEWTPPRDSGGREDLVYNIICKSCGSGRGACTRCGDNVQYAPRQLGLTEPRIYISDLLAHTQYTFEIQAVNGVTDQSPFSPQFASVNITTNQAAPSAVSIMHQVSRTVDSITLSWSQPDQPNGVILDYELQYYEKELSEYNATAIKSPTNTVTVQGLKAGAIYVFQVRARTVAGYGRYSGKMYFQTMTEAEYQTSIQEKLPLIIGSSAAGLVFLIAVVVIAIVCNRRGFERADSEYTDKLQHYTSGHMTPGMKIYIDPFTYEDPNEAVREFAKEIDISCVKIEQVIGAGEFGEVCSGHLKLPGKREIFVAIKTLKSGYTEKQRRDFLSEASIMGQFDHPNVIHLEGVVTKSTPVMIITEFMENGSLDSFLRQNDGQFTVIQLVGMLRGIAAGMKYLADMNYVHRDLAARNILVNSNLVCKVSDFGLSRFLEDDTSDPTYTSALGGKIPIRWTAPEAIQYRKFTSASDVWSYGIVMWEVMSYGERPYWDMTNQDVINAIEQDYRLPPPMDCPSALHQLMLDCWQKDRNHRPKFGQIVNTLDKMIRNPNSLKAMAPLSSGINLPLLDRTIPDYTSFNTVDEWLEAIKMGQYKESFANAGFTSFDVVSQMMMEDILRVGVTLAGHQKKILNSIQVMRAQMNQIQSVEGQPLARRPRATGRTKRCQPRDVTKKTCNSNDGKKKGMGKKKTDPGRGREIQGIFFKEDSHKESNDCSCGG
Summary of the method: as §1

EGFR (ErbB1) T790M L858R = molecular target: T5, EGFR (ErbB1) T790M L858R (Homo sapiens, UniProt P00533, L858R/T790M)
T5 construct: purchased Thermo Fisher Scientific
Summary of the method: as §1

NIM1K = molecular target: T6, NIM1K (Homo sapiens, UniProt Q8IY84)
T6 construct: purchased Thermo Fisher Scientific
Summary of the method: as §1

LRRK2 I2020T = molecular target: T7, LRRK2 I2020T (Homo sapiens, UniProt Q5S007, I2020T)
T7 construct: purchased Thermo Fisher Scientific
Summary of the method: as §1

STK22B (TSSK2) = molecular target: T8, STK22B (TSSK2) (Homo sapiens, UniProt Q96PF2)
T8 construct: purchased Thermo Fisher Scientific
T8 sequence (Q96PF2 1-358): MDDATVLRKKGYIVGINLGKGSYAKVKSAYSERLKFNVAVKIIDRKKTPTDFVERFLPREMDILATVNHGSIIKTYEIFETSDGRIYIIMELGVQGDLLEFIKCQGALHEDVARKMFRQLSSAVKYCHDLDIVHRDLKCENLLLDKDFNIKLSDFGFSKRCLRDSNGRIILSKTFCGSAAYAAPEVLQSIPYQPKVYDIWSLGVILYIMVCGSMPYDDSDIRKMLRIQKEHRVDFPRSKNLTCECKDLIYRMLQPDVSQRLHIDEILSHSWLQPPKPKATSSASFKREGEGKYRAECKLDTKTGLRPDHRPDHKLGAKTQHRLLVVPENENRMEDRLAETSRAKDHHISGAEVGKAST
Summary of the method: as §1

RPS6KA2 (RSK3) = molecular target: T9, RPS6KA2 (RSK3) (Homo sapiens, UniProt Q15349)
T9 construct: purchased Thermo Fisher Scientific
Summary of the method: as §1

KIT V559D V654A = molecular target: T10, KIT V559D V654A (Homo sapiens, UniProt P10721, V559D/V654A)
T10 construct: purchased Thermo Fisher Scientific
Summary of the method: as §1

T3 sequence (P27361 whole entry): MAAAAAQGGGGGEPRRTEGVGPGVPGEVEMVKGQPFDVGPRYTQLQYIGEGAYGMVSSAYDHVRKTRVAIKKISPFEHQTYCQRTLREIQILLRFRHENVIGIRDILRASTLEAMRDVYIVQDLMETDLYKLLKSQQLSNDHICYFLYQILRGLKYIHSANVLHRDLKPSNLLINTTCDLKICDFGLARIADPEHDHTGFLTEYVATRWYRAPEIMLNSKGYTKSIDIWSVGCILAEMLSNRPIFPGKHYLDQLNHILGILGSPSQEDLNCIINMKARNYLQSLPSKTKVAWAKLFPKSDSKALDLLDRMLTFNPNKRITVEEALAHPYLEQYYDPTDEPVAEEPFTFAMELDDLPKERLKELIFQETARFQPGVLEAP
T6 sequence (Q8IY84 whole entry): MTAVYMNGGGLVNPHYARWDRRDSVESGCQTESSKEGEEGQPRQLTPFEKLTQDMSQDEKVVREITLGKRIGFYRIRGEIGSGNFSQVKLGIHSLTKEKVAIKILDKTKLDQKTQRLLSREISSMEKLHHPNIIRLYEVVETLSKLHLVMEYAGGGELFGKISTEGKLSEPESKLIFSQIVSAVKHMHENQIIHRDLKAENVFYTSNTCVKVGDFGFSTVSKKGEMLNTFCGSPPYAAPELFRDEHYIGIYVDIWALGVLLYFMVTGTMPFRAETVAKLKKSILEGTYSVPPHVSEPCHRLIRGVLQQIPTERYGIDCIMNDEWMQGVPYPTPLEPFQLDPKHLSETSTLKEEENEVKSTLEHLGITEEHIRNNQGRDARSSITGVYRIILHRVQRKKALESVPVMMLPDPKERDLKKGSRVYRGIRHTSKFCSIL
T7 sequence (Q5S007 970-2527 I2020T limits assumed): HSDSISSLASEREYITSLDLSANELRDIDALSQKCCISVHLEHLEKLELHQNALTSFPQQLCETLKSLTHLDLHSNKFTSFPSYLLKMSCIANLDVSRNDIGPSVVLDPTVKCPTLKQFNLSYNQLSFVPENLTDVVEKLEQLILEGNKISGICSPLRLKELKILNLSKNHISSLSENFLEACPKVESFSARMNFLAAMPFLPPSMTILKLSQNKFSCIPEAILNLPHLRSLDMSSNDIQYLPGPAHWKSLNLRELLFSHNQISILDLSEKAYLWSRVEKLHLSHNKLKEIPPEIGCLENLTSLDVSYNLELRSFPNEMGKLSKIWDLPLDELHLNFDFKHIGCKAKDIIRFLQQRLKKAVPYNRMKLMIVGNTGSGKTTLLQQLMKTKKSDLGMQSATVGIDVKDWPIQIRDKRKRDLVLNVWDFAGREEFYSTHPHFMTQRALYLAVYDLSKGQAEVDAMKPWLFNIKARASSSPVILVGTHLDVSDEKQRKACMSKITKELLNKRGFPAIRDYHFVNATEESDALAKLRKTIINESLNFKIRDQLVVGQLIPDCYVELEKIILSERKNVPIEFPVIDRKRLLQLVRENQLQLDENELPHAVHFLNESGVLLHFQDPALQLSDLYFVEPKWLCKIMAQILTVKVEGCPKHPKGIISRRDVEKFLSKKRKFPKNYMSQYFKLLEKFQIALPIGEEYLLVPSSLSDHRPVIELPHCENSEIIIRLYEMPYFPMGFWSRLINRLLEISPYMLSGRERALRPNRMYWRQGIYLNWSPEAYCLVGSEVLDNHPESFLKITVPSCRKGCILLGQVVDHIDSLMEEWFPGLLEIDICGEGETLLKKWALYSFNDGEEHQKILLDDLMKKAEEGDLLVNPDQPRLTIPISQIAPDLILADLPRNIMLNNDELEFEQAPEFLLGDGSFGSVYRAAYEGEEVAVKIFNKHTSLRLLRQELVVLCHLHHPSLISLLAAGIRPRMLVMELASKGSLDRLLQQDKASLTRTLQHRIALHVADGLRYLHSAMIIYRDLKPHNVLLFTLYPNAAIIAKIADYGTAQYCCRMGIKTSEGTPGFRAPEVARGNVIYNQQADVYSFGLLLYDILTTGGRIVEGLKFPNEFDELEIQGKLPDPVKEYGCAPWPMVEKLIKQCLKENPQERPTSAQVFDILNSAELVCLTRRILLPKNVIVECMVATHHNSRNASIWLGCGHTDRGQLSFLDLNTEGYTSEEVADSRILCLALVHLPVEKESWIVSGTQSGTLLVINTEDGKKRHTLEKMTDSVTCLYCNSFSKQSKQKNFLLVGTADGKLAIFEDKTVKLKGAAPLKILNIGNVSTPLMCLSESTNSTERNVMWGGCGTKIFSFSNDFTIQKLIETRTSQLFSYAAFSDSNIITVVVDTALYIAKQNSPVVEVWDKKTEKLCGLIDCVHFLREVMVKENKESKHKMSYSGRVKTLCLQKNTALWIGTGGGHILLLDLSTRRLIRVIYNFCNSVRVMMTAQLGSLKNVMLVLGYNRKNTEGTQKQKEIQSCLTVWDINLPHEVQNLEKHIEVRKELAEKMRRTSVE
T9 sequence (Q15349 whole entry): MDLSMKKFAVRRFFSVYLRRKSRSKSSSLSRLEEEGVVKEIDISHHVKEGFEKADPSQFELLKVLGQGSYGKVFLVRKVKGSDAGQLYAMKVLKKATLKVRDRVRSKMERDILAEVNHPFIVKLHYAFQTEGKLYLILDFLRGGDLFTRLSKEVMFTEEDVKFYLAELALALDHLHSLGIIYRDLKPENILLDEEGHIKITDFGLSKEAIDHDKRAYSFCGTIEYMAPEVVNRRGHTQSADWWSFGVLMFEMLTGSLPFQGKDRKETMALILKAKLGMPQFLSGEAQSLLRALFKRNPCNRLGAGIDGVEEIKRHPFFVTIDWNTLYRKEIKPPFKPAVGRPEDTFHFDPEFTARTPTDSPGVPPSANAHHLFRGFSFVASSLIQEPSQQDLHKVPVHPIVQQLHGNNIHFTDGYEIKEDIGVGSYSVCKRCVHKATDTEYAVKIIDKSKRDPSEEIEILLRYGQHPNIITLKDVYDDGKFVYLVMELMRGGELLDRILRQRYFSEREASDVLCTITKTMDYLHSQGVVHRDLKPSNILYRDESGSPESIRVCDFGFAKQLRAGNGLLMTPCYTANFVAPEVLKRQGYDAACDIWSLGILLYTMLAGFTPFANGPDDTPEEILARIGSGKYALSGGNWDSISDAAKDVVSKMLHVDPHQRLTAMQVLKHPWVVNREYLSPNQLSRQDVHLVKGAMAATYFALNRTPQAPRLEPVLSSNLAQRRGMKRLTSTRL
T10 sequence (P10721 26-976 V559D/V654A): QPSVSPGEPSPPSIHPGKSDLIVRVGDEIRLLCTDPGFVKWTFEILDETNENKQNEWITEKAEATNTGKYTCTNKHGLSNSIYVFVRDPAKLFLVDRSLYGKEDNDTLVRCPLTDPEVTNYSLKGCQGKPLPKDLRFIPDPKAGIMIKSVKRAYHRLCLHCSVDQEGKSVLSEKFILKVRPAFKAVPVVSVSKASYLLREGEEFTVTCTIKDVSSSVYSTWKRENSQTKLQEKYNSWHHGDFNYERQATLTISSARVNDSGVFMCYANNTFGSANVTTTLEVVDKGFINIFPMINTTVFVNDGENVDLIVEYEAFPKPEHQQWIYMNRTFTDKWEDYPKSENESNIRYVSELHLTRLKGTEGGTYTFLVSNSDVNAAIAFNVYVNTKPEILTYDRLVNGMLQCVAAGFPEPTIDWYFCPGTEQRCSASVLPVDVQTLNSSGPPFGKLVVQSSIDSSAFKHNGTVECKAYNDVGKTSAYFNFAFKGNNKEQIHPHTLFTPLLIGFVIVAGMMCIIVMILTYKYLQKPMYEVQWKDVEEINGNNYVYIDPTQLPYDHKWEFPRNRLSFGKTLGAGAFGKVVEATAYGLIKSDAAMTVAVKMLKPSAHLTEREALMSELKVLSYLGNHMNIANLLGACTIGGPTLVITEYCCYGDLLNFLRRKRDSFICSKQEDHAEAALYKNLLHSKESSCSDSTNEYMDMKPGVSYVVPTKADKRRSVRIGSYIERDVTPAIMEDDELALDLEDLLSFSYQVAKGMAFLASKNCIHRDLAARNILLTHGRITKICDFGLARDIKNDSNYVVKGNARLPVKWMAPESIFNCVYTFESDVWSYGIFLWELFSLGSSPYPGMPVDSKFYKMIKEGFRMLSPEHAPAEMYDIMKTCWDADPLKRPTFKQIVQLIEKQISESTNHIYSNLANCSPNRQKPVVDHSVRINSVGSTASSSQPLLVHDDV
T2 sequence (Q13164 whole entry): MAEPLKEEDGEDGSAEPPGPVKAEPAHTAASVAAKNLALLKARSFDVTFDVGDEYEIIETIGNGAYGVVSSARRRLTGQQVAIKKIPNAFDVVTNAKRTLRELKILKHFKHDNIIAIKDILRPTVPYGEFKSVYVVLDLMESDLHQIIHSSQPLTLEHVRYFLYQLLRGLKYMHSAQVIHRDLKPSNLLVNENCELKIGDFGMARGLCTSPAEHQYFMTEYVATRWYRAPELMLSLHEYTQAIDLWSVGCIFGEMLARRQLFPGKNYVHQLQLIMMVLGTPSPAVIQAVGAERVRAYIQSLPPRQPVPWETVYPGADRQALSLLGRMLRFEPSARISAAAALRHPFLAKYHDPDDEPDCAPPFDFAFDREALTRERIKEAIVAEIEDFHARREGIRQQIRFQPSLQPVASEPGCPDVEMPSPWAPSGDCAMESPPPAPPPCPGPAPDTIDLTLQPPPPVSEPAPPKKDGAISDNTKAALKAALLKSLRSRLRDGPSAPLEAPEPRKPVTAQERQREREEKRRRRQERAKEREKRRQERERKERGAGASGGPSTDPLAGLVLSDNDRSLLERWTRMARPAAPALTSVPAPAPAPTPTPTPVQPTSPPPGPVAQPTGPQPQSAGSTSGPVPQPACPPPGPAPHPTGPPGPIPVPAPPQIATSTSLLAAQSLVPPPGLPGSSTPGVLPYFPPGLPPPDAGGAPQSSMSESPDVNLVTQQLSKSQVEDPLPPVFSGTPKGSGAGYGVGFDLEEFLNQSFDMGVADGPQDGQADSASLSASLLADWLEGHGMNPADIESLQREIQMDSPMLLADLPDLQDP

Row | SMILES | inhibition at 1 µM (EEF2K) [%] | inhibition at 10 µM (EEF2K) [%] | inhibition at 1 µM (MAPK7 (ERK5)) [%] | inhibition at 10 µM (MAPK7 (ERK5)) [%] | inhibition at 1 µM (MAPK3 (ERK1)) [%] | inhibition at 10 µM (MAPK3 (ERK1)) [%] | inhibition at 1 µM (EPHB2) [%] | inhibition at 10 µM (EPHB2) [%] | inhibition at 1 µM (EGFR (ErbB1) T790M L858R) [%] | inhibition at 10 µM (EGFR (ErbB1) T790M L858R) [%] | inhibition at 1 µM (NIM1K) [%] | inhibition at 10 µM (NIM1K) [%] | inhibition at 1 µM (LRRK2 I2020T) [%] | inhibition at 10 µM (LRRK2 I2020T) [%] | inhibition at 1 µM (STK22B (TSSK2)) [%] | inhibition at 10 µM (STK22B (TSSK2)) [%] | inhibition at 1 µM (RPS6KA2 (RSK3)) [%] | inhibition at 10 µM (RPS6KA2 (RSK3)) [%] | inhibition at 1 µM (KIT V559D V654A) [%] | inhibition at 10 µM (KIT V559D V654A) [%]
1 | COc1ccc2c(c1OC)c(=O)n1c3ccc(O)cc3c3ccnc2c31 [MW01, 5-Hydroxy-10,11-dimethoxy-9H-benzo[c]indolo[3,2,1-ij][1,5]naphthyridin-9-one] | 11 | 37 | 9 | 1 | 14 | 4 | 10 | 17 | 9 | 29 | 7 | 13 | 83 | 90 | 11 | 20 | 6 | 11 | -10 | -12
2 | COc1ccc2cc3c(N)nn(C(=O)c4cccc(N(C)C)c4)c3nc2c1 [MW05, (3-Amino-7-methoxypyrazolo[3,4-b]quinolin-1-yl)-[3-(dimethylamino)phenyl]methanone] | 3 | 5 | 2 | -7 | 14 | 11 | 6 | 1 | -5 | 10 | 7 | 2 | -3 | 5 | 11 | 2 | 5 | 6 | -16 | -37
